Active and inactive are the calls of the source.
Experiments:
[1] = test system: Pseudomonas aeruginosa PAO1; test: Inhibition of beta-lactamase activity in Pseudomonas aeruginosa PAO1 deltadacBdeltapbpGdeltadacC assessed as MIC for cefpodoxime antibacterial activity at 16 mg/L by broth microdilution method
[2] = test system: Pseudomonas aeruginosa PAO1; test: Inhibition beta lactamase PDC-1 in Pseudomonas aeruginosa PAO1 assessed as ratio of kinact/K1 using nitrocefin as substrate measured by 96 well microtitre plate
[3] = test system: Pseudomonas aeruginosa PAO1; test: Inhibition of beta-lactamase activity in Pseudomonas aeruginosa PAO1 13/09-018 (ST-175) assessed as MIC for cefpodoxime antibacterial activity at 16 mg/L by broth microdilution method
[4] = test system: Pseudomonas aeruginosa PAO1; test: Inhibition of beta-lactamase activity in Pseudomonas aeruginosa PAO1 deltaC+pUCP-(PDC-5) assessed as MIC for cefpodoxime antibacterial activity at 4 mg/L by broth microdilution method
[5] = test system: Pseudomonas aeruginosa PAO1; test: Inhibition of beta-lactamase activity in Pseudomonas aeruginosa PAO1 deltaDdeltsDh2deltaDh3 assessed as MIC for cefpodoxime antibacterial activity at 16 mg/L by broth microdilution method
[6] = test system: Pseudomonas aeruginosa PAO1; test: Inhibition of beta-lactamase activity in Pseudomonas aeruginosa PAO1 17/14-017 (ST-235) assessed as MIC for cefpodoxime antibacterial activity at 4 mg/L by broth microdilution method
[7] = test system: Pseudomonas aeruginosa PAO1; test: Inhibition of beta-lactamase activity in Pseudomonas aeruginosa PAO1 deltadacB assessed as MIC for cefpodoxime antibacterial activity at 4 mg/L by broth microdilution method
[8] = test system: Pseudomonas aeruginosa PAO1; test: Inhibition beta lactamase PDC-1 in Pseudomonas aeruginosa PAO1 assessed half life of nitrocefin substrate measured by 96 well microtitre plate assay
[9] = test system: Pseudomonas aeruginosa PAO1; test: Inhibition of beta-lactamase activity in Pseudomonas aeruginosa PAO1 deltadacB assessed as MIC for cefpodoxime antibacterial activity at 16 mg/L by broth microdilution method
[10] = test system: Pseudomonas aeruginosa PAO1; test: Inhibition of beta-lactamase activity in Pseudomonas aeruginosa PAO1 deltadacBdeltadacC assessed as MIC for cefpodoxime antibacterial activity at 16 mg/L by broth microdilution method
[11] = test system: Pseudomonas aeruginosa PAO1; test: Inhibition of beta-lactamase activity in Pseudomonas aeruginosa PAO1 deltaC assessed as MIC for cefpodoxime antibacterial activity at 4 mg/L by broth microdilution method
[12] = test system: Pseudomonas aeruginosa PAO1; test: Inhibition of beta-lactamase activity in Pseudomonas aeruginosa PAO1 deltadacBdeltadacC assessed as MIC for cefpodoxime antibacterial activity at 4 mg/L by broth microdilution method
[13] = test system: Pseudomonas aeruginosa PAO1; test: Inhibition of beta-lactamase activity in Pseudomonas aeruginosa PAO1 deltaampD assessed as MIC for cefpodoxime antibacterial activity at 16 mg/L by broth microdilution method
[14] = test system: Pseudomonas aeruginosa PAO1; test: Inhibition of beta lactamase PDC-1 in Pseudomonas aeruginosa PAO1 assessed as reduction in enzyme activity using nitrocefin as chromogenic substrate preincubated for 10 min using 96 well microtiter plate
[15] = test system: Pseudomonas aeruginosa PAO1; test: Inhibition of beta-lactamase activity in Pseudomonas aeruginosa PAO1 53/22-113 (ST-244) assessed as MIC for cefpodoxime antibacterial activity at 16 mg/L by broth microdilution method
[16] = test system: Pseudomonas aeruginosa PAO1; test: Inhibition beta lactamase PDC-1 in Pseudomonas aeruginosa PAO1 assessed as inactivation efficiency by measuring acylation rate (k2/K) using nitrocefin as substrate measured by 96 well microtitre plate
[17] = test system: Pseudomonas aeruginosa PAO1; test: Inhibition of beta-lactamase activity in Pseudomonas aeruginosa PAO1 PAHUAC-14 (ST-966) assessed as MIC for cefpodoxime antibacterial activity at 16 mg/L by broth microdilution method
[18] = test system: Pseudomonas aeruginosa PAO1; test: Inhibition of beta-lactamase activity in Pseudomonas aeruginosa PAO1 23/14-053 (ST-309) assessed as MIC for cefpodoxime antibacterial activity at 4 mg/L by broth microdilution method
[19] = test system: Pseudomonas aeruginosa PAO1; test: Inhibition of beta-lactamase activity in Pseudomonas aeruginosa PAO1 deltadacBdeltaampD assessed as MIC for cefpodoxime antibacterial activity at 16 mg/L by broth microdilution method
[20] = test system: Pseudomonas aeruginosa PAO1; test: Inhibition of beta-lactamase activity in Pseudomonas aeruginosa PAO1 6/04-224 (ST-175) assessed as MIC for cefpodoxime antibacterial activity at 16 mg/L by broth microdilution method
[21] = test system: Pseudomonas aeruginosa PAO1; test: Inhibition of beta-lactamase activity in Pseudomonas aeruginosa PAO1 deltaDdeltsDh2deltaDh3 assessed as MIC for cefpodoxime antibacterial activity at 4 mg/L by broth microdilution method
[22] = test system: Pseudomonas aeruginosa PAO1; test: Inhibition of beta-lactamase activity in Pseudomonas aeruginosa PAO1 53/22-113 (ST-244) assessed as MIC for cefpodoxime antibacterial activity at 4 mg/L by broth microdilution method
[23] = test system: Pseudomonas aeruginosa PAO1; test: Inhibition of beta-lactamase activity in Pseudomonas aeruginosa PAO1 deltaC+pUCP-(PDC-1) assessed as MIC for cefpodoxime antibacterial activity at 16 mg/L by broth microdilution method
[24] = test system: Pseudomonas aeruginosa PAO1; test: Inhibition of beta-lactamase activity in Pseudomonas aeruginosa PAO1 PAHUAC-27(ST-22) assessed as MIC for cefpodoxime antibacterial activity at 4 mg/L by broth microdilution method
[25] = test system: Pseudomonas aeruginosa PAO1; test: Inhibition of beta-lactamase activity in Pseudomonas aeruginosa PAO1 deltadacBdeltaampD assessed as MIC for cefpodoxime antibacterial activity at 4 mg/L by broth microdilution method
[26] = Inhibition beta lactamase PDC-1 in Pseudomonas aeruginosa PAO1 using nitrocefin as substrate measured by 96 well microtitre plate
[27] = test system: Pseudomonas aeruginosa PAO1; test: Inhibition of beta-lactamase activity in Pseudomonas aeruginosa PAO1 deltaampD assessed as MIC for cefpodoxime antibacterial activity at 4 mg/L by broth microdilution method
[28] = test system: Pseudomonas aeruginosa PAO1; test: Inhibition beta lactamase PDC-1 in Pseudomonas aeruginosa PAO1 assessed as maximum rate of inactivation using nitrocefin as substrate measured by 96 well microtitre plate
Pseudomonas aeruginosa = test: Inhibition of beta lactamase PDC-1 in Pseudomonas aeruginosa PAO1 for 30 min using MALDI TOF-MS analysis
[29] = test system: Pseudomonas aeruginosa PAO1; test: Inhibition of beta-lactamase activity in Pseudomonas aeruginosa PAO1 PAHUAC-14 (ST-966) assessed as MIC for cefpodoxime antibacterial activity at 4 mg/L by broth microdilution method
[30] = test system: Pseudomonas aeruginosa PAO1; test: Inhibition of beta-lactamase activity in Pseudomonas aeruginosa PAO1 13/09-018 (ST-175) assessed as MIC for cefpodoxime antibacterial activity at 4 mg/L by broth microdilution method
[31] = test system: Pseudomonas aeruginosa PAO1; test: Inhibition of beta-lactamase activity in Pseudomonas aeruginosa PAO1 6/04-224 (ST-175) assessed as MIC for cefpodoxime antibacterial activity at 4 mg/L by broth microdilution method
[32] = test system: Pseudomonas aeruginosa PAO1; test: Inhibition of beta-lactamase activity in Pseudomonas aeruginosa PAO1 assessed as MIC for cefpodoxime antibacterial activity at 16 mg/L by broth microdilution method
[33] = test system: Pseudomonas aeruginosa PAO1; test: Inhibition of beta-lactamase activity in Pseudomonas aeruginosa PAO1 23/14-053 (ST-309) assessed as MIC for cefpodoxime antibacterial activity at 16 mg/L by broth microdilution method
[34] = test system: Pseudomonas aeruginosa PAO1; test: Inhibition of beta-lactamase activity in Pseudomonas aeruginosa PAO1 17/14-017 (ST-235) assessed as MIC for cefpodoxime antibacterial activity at 16 mg/L by broth microdilution method
[35] = test system: Pseudomonas aeruginosa PAO1; test: Inhibition of beta-lactamase activity in Pseudomonas aeruginosa PAO1 36/14-210 (ST-235) assessed as MIC for cefpodoxime antibacterial activity at 16 mg/L by broth microdilution method
[36] = test system: Pseudomonas aeruginosa PAO1; test: Inhibition of beta-lactamase activity in Pseudomonas aeruginosa PAO1 36/14-210 (ST-235) assessed as MIC for cefpodoxime antibacterial activity at 4 mg/L by broth microdilution method
[37] = test system: Pseudomonas aeruginosa PAO1; test: Inhibition of beta-lactamase activity in Pseudomonas aeruginosa PAO1 deltaC+pUCP-(PDC-5) assessed as MIC for cefpodoxime antibacterial activity at 16 mg/L by broth microdilution method
[38] = test system: Pseudomonas aeruginosa PAO1; test: Inhibition of beta-lactamase activity in Pseudomonas aeruginosa PAO1 assessed as MIC for cefpodoxime antibacterial activity at 4 mg/L by broth microdilution method
[39] = test system: Pseudomonas aeruginosa PAO1; test: Inhibition of beta-lactamase activity in Pseudomonas aeruginosa PAO1 deltaC assessed as MIC for cefpodoxime antibacterial activity at 16 mg/L by broth microdilution method
[40] = test system: Pseudomonas aeruginosa PAO1; test: Inhibition of beta-lactamase activity in Pseudomonas aeruginosa PAO1 deltadacBdeltapbpGdeltadacC assessed as MIC for cefpodoxime antibacterial activity at 4 mg/L by broth microdilution method
[41] = test system: Pseudomonas aeruginosa PAO1; test: Inhibition of beta-lactamase activity in Pseudomonas aeruginosa PAO1 PAHUAC-27(ST-22) assessed as MIC for cefpodoxime antibacterial activity at 16 mg/L by broth microdilution method
[42] = Inhibition beta lactamase PDC-1 in Pseudomonas aeruginosa PAO1 assessed as apparent inhibition constant using nitrocefin as substrate measured by 96 well microtitre plate; conditions: read-out: Ki(app)
[43] = test system: Pseudomonas aeruginosa PAO1; test: Inhibition of beta-lactamase activity in Pseudomonas aeruginosa PAO1 deltaC+pUCP-(PDC-1) assessed as MIC for cefpodoxime antibacterial activity at 4 mg/L by broth microdilution method
[44] = test system: Pseudomonas aeruginosa PAO1; test: Inhibition beta lactamase PDC-1 in Pseudomonas aeruginosa PAO1 assessed as deacylation off-rate using nitrocefin as substrate at 30 mins measured by 96 well microtitre plate

C[C@]1(COC(=O)Cc2ccc(O)c(O)c2)[C@H](C(=O)O)N2C(=O)/C(=C/c3ccccn3)[C@H]2S1(=O)=O
1.5 M⁻¹ s⁻¹: k2/K inactivation efficiency [16]
4 µg/mL: MIC [15] | MIC [21]
16 µg/mL: MIC [29] | MIC [36]
1.37 h: T1/2 [8]
8 µg/mL: MIC [3] | MIC [20] | MIC [22] | MIC [25] | MIC [31] | MIC [35]
53 nM: Ki [42]
1 µg/mL: MIC [7] | MIC [11] | MIC [12] | MIC [13] | MIC [18] | MIC [19] | MIC [23] | MIC [32] | MIC [33] | MIC [38] | MIC [39] | MIC [40] | MIC [41] | MIC [43]
9 10^-2/min: K [44]
0.046 s⁻¹: Kinact [28]
6.3 10^5/M/s: K [2]
inactive: inhibition [14] | inhibition (Pseudomonas aeruginosa)
2 µg/mL: MIC [4] | MIC [6] | MIC [17] | MIC [24] | MIC [27] | MIC [30] | MIC [34] | MIC [37]
0.5 µg/mL: MIC [1] | MIC [5] | MIC [9] | MIC [10]
6.1 nM: IC50 [26]
